Source: patent US20240368163A1, “COMPOUNDS AND METHODS FOR MODULATING SPLICING” (REMIX THERAPEUTICS INC., priority 2021, published 2024)
Like-named read-outs stand apart in the source and are kept apart here.

Experiments:
Assay type in all cases: cell-based, human
MYB [1] = assay: Splicing RT-qPCR assay, MYB mRNA canonical junction (CJ) and alternative junction (AJ); conditions: for AC50: increase in AJ mRNA
Outline: (§1)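 First, A673 cells adhered 24 h, while K562 cells were plated directly. Next, compounds were added as an 11-point 3-fold series from 10 uM for 24 h. Finally, lysates went to RT-qPCR, with 2^(−ΔΔCt) values converted to percentage response.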

SMN2 = assay: Splicing RT-qPCR panel, SMN2 canonical junction (CJ) mRNA; conditions: RT-qPCR panel, canonical junction mRNA, compound concentration having 50% response in CJ decrease, read-out: SMN2 IC50 (decrease in CJ mRNA levels)
Outline: as §1

MYB [2] = assay: HiBiT protein abundance assay, MYB; conditions: Table 13A, modified K562 cells
Outline: (§2)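 Target abundance was measured as HiBiT luminescence after 24 h compound treatment of tagged K562 cells. Responses were normalized between unmodified K562 and DMSO-treated tagged cells, and IC50 taken at the 50% level of a 4PL curve.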

HTT [3] = assay: HiBiT protein abundance assay, HTT; conditions: Table 13A, modified K562 cells
Outline: as §2

Target C [4] = assay: HiBiT protein abundance assay, Target C; conditions: Table 13A, modified K562 cells
Outline: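 Cells carrying the HiBiT knock-in were plated at 10000 cells/well, dosed with compound (10-point, 3-fold, 10 μM top final) and incubated 24 hours at 37 °C. Lytic reagent was then added and luminescence read. Percent response fed a 4PL fit for IC50.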

HTT [5] = assay: Splicing RT-qPCR assay, HTT mRNA canonical junction (CJ) and alternative junction (AJ); conditions: for AC50: increase in AJ mRNA
Outline: as §1

Target C [6] = assay: Splicing RT-qPCR panel, Target C canonical junction (CJ) mRNA; conditions: RT-qPCR panel, canonical junction mRNA, compound concentration having 50% response in CJ decrease, read-out: Target C IC50 (decrease in CJ mRNA levels)
Outline: as §1

[7] = Homo sapiens, 24 h, decrease in CJ mRNA, A673 or K562 cells, 24 hours treatment, RT-qPCR, read-out: MYB CJ IC50
[8] = Homo sapiens, RT-qPCR panel, canonical junction mRNA, compound concentration having 50% response in CJ decrease, read-out: MYB IC50 (decrease in CJ mRNA levels)
[9] = Homo sapiens, 24 h, decrease in CJ mRNA, A673 or K562 cells, 24 hours treatment, RT-qPCR, read-out: HTT CJ IC50
[10] = Homo sapiens, 24 h, A673 or K562 cells, 24 hours treatment, RT-qPCR
[11] = Homo sapiens, RT-qPCR panel, canonical junction mRNA, compound concentration having 50% response in CJ decrease, read-out: HTT IC50 (decrease in CJ mRNA levels)

| SMILES | IC50 (MYB [1]; [7]) [µM] | IC50 (MYB [1]; [8]) [µM] | IC50 (SMN2; Homo sapiens) [µM] | IC50 (MYB [2]; Homo sapiens, K562, 24 h) [µM] | IC50 (HTT [3]; Homo sapiens, K562, 24 h) [µM] | IC50 (Target C [4]; 24 hours) [µM] | IC50 (HTT [5]; [9]) [µM] | AC50 (HTT [5]; [10]) [µM] | IC50 (HTT [5]; [11]) [µM] | IC50 (Target C [6]; Homo sapiens) [µM] | AC50 (MYB [1]; [10]) [µM] | IC50 (Target C [4]; Homo sapiens, K562, 24 h) [µM] | IC50 (MYB [1]; RT-qPCR panel, canonical junction mRNA, compound concentration having 50% response in CJ decrease, read-out: MYB IC50 (decrease in CJ mRNA levels)) [µM] | IC50 (MYB [1]; decrease in CJ mRNA, A673 or K562 cells, 24 hours treatment, RT-qPCR, read-out: MYB CJ IC50) [µM] | IC50 (SMN2) [µM] | IC50 (MYB [2]; 24 hours) [µM] | IC50 (HTT [3]; 24 hours) [µM] | IC50 (HTT [5]; RT-qPCR panel, canonical junction mRNA, compound concentration having 50% response in CJ decrease, read-out: HTT IC50 (decrease in CJ mRNA levels)) [µM] | IC50 (HTT [5]; decrease in CJ mRNA, A673 or K562 cells, 24 hours treatment, RT-qPCR, read-out: HTT CJ IC50) [µM] | IC50 (Target C [6]) [µM] |
| --- | --- | --- | --- | --- | --- | --- | --- | --- | --- | --- | --- | --- | --- | --- | --- | --- | --- | --- | --- | --- |
| CN(c1ccc(-c2cc(F)c(-c3cnn(C)c3)c3cn[nH]c23)nn1)C1CC(C)(C)NC(C)(C)C1 [Compound 320, 6-[5-fluoro-4-(1-methylpyrazol-4-yl)-1H-indazol-7-yl]-N-methyl-N-(2,2,6,6-tetramethylpiperidin-4-yl)pyridazin-3-amine] | 0.1 to 1 | 0.1 to 1 | < 0.1 | 0.1 to 1 | 0.1 to 1 | 0.1 to 1 | 0.1 to 1 | 0.1 to 1 | 0.1 to 1 | 1 to 10 |  |  |  |  |  |  |  |  |  |  |
| Cn1ncc(-c2ccc(-c3ccc(O[C@@H]4C[C@H]5CC[C@@H](C4)N5)nn3)c3[nH]ncc23)n1 [Compound 321, 7-{6-[(1R,3S,5S)-8-azabicyclo[3.2.1]octan-3-yloxy]pyridazin-3-yl}-4-(2-methyl-1,2,3-triazol-4-yl)-1H-indazole] | 0.1 to 1 | 0.1 to 1 | < 0.1 | 0.1 to 1 | 0.1 to 1 |  | 0.1 to 1 | 0.1 to 1 | 0.1 to 1 | 0.1 to 1 | 0.1 to 1 | 0.1 to 1 |  |  |  |  |  |  |  |  |
| Cn1ncc(-c2ccc(-c3ccc(N[C@@H]4C[C@H]5CC[C@@H](C4)N5)nn3)c3[nH]ncc23)n1 [Compound 322] | < 0.1 | < 0.1 | < 0.1 | < 0.1 | < 0.1 |  |  | < 0.1 | < 0.1 | < 0.1 | < 0.1 | < 0.1 |  |  |  |  |  |  |  |  |
| Cn1cc(-c2ccc(-c3ccc(O[C@@H]4C[C@H]5CC[C@@H](C4)N5)nn3)c3[nH]ncc23)nn1 [Compound 323, 7-{6-[(1R,3S,5S)-8-azabicyclo[3.2.1]octan-3-yloxy]pyridazin-3-yl}-4-(1-methyl-1,2,3-triazol-4-yl)-1H-indazole] | 0.1 to 1 | 0.1 to 1 | < 0.1 | 0.1 to 1 | 0.1 to 1 |  | 0.1 to 1 | 0.1 to 1 | 0.1 to 1 | 1 to 10 | 0.1 to 1 | 1 to 10 |  |  |  |  |  |  |  |  |
| Cn1cc(-c2ccc(-c3ccc(N[C@@H]4C[C@H]5CC[C@@H](C4)N5)nn3)c3[nH]ncc23)nn1 [Compound 324, (1R,3s,5S)-N-(6-(4-(1-methyl-1H-1,2,3-triazol-4-yl)-1H-indazol-7-yl)pyridazin-3-yl)-8-azabicyclo[3.2.1]octan-3-amine] | 1 to 10 | 1 to 10 | 0.1 to 1 | 1 to 10 | 1 to 10 |  | 1 to 10 | 1 to 10 | 1 to 10 | > 10 | 1 to 10 | 1 to 10 |  |  |  |  |  |  |  |  |
| Cn1cc(-c2ccc(-c3ccc(OC4CC(C)(C)NC(C)(C)C4)nn3)c3[nH]ncc23)nn1 [Compound 325, 4-(1-methyl-1H-1,2,3-triazol-4-yl)-7-(6-((2,2,6,6-tetramethylpiperidin-4-yl)oxy)pyridazin-3-yl)-1H-indazole] | 1 to 10 | 1 to 10 | 0.1 to 1 | 1 to 10 | 1 to 10 |  | 1 to 10 | 1 to 10 | 1 to 10 | > 10 | 1 to 10 | > 10 |  |  |  |  |  |  |  |  |
| CN(c1ccc(-c2cc(F)c(-c3cnn(C)c3)c3cn[nH]c23)nn1)C1CC(C)(C)NC(C)(C)C1 [Compound 326, 6-[5-fluoro-4-(1-methylpyrazol-4-yl)-1H-indazol-7-yl]-N-methyl-N-(2,2,6,6-tetramethylpiperidin-4-yl)pyridazin-3-amine] |  |  |  |  |  | 1 to 10 |  |  |  |  |  |  | 0.1 to 1 | 0.1 to 1 | < 0.1 | 0.1 to 1 | 0.1 to 1 | 0.1 to 1 | 0.1 to 1 | 1 to 10 |
| c1n[nH]cc1-c1ccc(-c2ccc(O[C@@H]3C[C@H]4CC[C@@H](C3)N4)nn2)c2cn[nH]c12 [Compound 328] | > 10 | > 10 | 1 to 10 | 1 to 10 | > 10 |  | > 10 | > 10 | > 10 | > 10 | > 10 | > 10 |  |  |  |  |  |  |  |  |
| CN(c1ccc(-c2ccc(-c3cn[nH]c3)c3[nH]ncc23)nn1)[C@@H]1C[C@H]2CC[C@@H](C1)N2 [Compound 329] | > 10 | > 10 | 1 to 10 | > 10 | > 10 |  | > 10 | > 10 | > 10 | > 10 | > 10 | > 10 |  |  |  |  |  |  |  |  |
| CN(c1ccc(-c2ccc(-c3cnn(C)c(=O)c3)c3ncsc23)nn1)C1CC(C)(C)NC(C)(C)C1 [Compound 331, 2-methyl-5-(7-{6-[methyl(2,2,6,6-tetramethylpiperidin-4-yl)amino]pyridazin-3-yl}-1,3-benzothiazol-4-yl) pyridazin-3-one] | 1 to 10 | 1 to 10 | 0.1 to 1 | 1 to 10 | 0.1 to 1 |  | 1 to 10 | 1 to 10 | 1 to 10 | > 10 | 1 to 10 | > 10 |  |  |  |  |  |  |  |  |
| c1cnn(-c2ccc(-c3ccc(O[C@@H]4C[C@H]5CC[C@@H](C4)N5)nn3)c3scnc23)c1 [Compound 334] | > 10 | > 10 | 0.1 to 1 | 0.1 to 1 | 0.1 to 1 |  | 0.1 to 1 | 1 to 10 | 0.1 to 1 | > 10 | 1 to 10 | 1 to 10 |  |  |  |  |  |  |  |  |
